Data on two compounds can be found in patent publication US20240285627A1, “DRUG COMBINATION OF FAK INHIBITOR AND IMMUNOGENIC CELL DEATH INDUCER AND USE THEREOF” (INXMED (NANJING) CO., LTD., priority 2022, published 2024).

Holding throughout (format): cell-based
In assay [1] the test system is Mouse colon cancer CT26 cells. In words: Induction of immunogenic cell death targets by Crizotinib and IN10018 in CT26 cells (Example 7). As to conditions: CT26, 48 hours; IN10018 5 μM, Crizotinib 3 μM. The method, then:
CT26 cells were cultured in monolayer in vitro, and the culture conditions were: RPMI-1640 medium with 10% fetal bovine serum, 37° C. and 5% CO2. Trypsin was used for routine digestion and passage treatment two or three times a week. When the cells were in exponential growth period and the adherent confluence reached 80%-90%, the cells were collected and plated.
CT26 cells were digested with trypsin, then collected and counted. According to the counting results, the cells were diluted with RPMI-1640+10% FBS, and the dilution concentration was 50,000 cells per ml. Then, the cells were plated on 24-well culture plates, and 1 ml of cell suspension (50,000 cells) was laid in each well. After plating, the cells were cultured in 37° C. and 5% CO2 incubator. […]
After the cells were washed twice with flow buffer (DPBS+2% FBS), the cells in each group were divided into two parts on average, one of which was added with 0.5 μl of AF647 anti-Calreticulin antibody in each well, then mixed well, and incubated in the dark for 20 minutes at 4° C. […] The cells were cultured at room temperature in the dark for 15 minutes, and then analyzed by flow cytometry.
Data analysis: After the assay, the cell positive rate was analyzed by Flowjo(V10) software.

The test system of assay [2] is Mouse colon cancer CT26 cells. In words: CT26 cells with IN10018 and Lurbinectedin: microscope and flow cytometry for CRT / Annexin V (Example 2). As to conditions: CT26, 48 hours; IN10018 5 μM, Lurbinectedin 0.00142 μM. The method, then: Mouse colon cancer CT26 cells (Insitute of Biochemistry and Cell Biology) were cultured with RPMI-1640 (Shanghai Basalmedia, classification number: L210KJ, batch number: F210916)+10% FBS (Gibco, classification number: 10099-141c, batch number: 2158737cp) and passaged twice. When the cells were in good condition, the culture solution was placed in a 24-well plate. After the cells were spread for 24 hours, four groups were set up, wherein the first group was a control group, and the culture medium was added; the second group was IN10018 with a concentration of 5 μM; the third group was Lurbinectedin (DC chemicals, classification number: DC12502, batch number: DC1250203) with a concentration of 0.00142 μM; and the fourth group was IN10018 (5 μM) combined with Lurbinectedin (0.00142 μM). The drugs were mixed and the mixture was cultured in a 5% CO2 incubator at 37° C. for 48 hours.
After 48 hours of drug action, the cells were observed under a microscope and photographed, and the photos were kept. Then the cells were collected, subjected to flow analysis, and washed twice with flow buffer (PBS+2% FBS). 0.5 μl of AF647 anti-Calreticulin antibody (abcam, classification number: ab196159, batch number: CR33676773) was added to each well and fully mixed. […] The mixture was cultured at room temperature in the dark for 15 minutes, and then analyzed by flow cytometry.
In general terms: A flow cytometer gives signals particle by particle.

Assay [3] deals with Mouse colon cancer CT26 cells. Briefly: Proliferation of CT26 cells, CCK8, Lurbinectedin with or without IN10018 (Example 1). As to conditions: 72 hours, combination group: 6 μM IN10018 added to each well. The method, then: Mouse colon cancer CT26 cells (Insitute of Biochemistry and Cell Biology) were cultured with RPMI-1640 (Shanghai Basalmedia, classification number: L210KJ, batch number: F210916)+10% FBS (Gibco, classification number: 10099-141c, batch number: 2158737cp) and passaged twice. When the cells were in good condition, the culture solution was placed in a 96-well plate with 3000 cells/well. After the cells were spread for 24 hours, a culture medium containing Lurbinectedin (DC chemicals, classification number: DC12502, batch number: DC1250203) was added. 10 drug action concentrations were set, wherein the first concentration was 0.1 μM, which was serially diluted 4 times, and the last concentration was a control with a drug concentration of 0. Each drug concentration was set in triplicate. At the same time, another group of cells was established with the same drug concentration as the above method. The difference was that 6 μM IN10018 was added to each well. The drugs were mixed and the mixture was cultured in a 5% CO2 incubator at 37° C. for 72 hours.
After 72 hours of drug action, the cells were observed under a microscope, and 10 μl of CCK8 detection reagent (Cellorlab, classification number: CX001M, batch number: 2571100) was added to each well. […] Then the plate was read with a microplate reader OD450 ([…]).

In the case of `C[C@@H](Oc1cc(-c2cnn(C3CCNCC3)c2)cnc1N)c1c(Cl)ccc(F)c1Cl` [Crizotinib], in assay [1], the “cell state under a microscope (cell death; cell viability)” value is on record as “cell death was obvious”. A word on the IC50: it is the point on the concentration scale where inhibition reaches its midpoint. In the case of `COc1ccc2[nH]c3c(c2c1)CCN[C@]31CS[C@@H]2c3c(OC(C)=O)c(C)c4c(c3[C@H](COC1=O)N1[C@@H]2[C@H]2c3c(cc(C)c(OC)c3O)C[C@@H]([C@@H]1O)N2C)OCO4` [Lurbinectedin], in assay [2], the “cell state under a microscope” value is “poor”. The IC50 in assay [3] amounted to 0.71 nM.
